How the values were obtained:
[1] = target: T1, OAT3 (Homo sapiens, UniProt Q8TCC7); conditions: cited from earlier work
T1 sequence (Q8TCC7 1-542): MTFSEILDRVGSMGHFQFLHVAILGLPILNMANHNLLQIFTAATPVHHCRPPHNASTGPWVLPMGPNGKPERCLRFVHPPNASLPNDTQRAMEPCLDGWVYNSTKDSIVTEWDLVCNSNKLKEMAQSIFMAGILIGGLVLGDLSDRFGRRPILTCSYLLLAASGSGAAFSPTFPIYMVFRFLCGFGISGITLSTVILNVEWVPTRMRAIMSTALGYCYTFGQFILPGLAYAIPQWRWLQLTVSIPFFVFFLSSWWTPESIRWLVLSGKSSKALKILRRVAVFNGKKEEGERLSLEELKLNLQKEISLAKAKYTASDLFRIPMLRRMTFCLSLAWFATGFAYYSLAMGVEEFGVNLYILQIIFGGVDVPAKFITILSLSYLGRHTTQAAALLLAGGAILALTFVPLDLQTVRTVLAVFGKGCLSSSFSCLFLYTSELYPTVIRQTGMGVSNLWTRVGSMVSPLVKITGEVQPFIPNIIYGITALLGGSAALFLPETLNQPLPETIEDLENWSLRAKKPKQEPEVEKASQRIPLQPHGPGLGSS

[2] = target: T2, PgP (Homo sapiens, UniProt P08183); assay: Cellular transwell monolayer efflux assay, MDCK cells transfected with TREx-PgP; format: in vitro ADME
T2 construct: expressed in transfected cells; host or cells: MDCK cells
Experimental: A third type of efflux transporter assay is the cellular transwell monolayer efflux assay. […] The cells form a polarized monolayer. The transwell dishes have apical and basolateral chambers that are separated by the filter membrane on which the polarized monolayer is situated. Assays are performed by placing a test compound in either the apical or basolateral chamber, followed by sampling the opposite chamber after a predetermined period of time such as 60-120 minutes and measuring the amount of the test compound. The test compound can be measured by methods such as radiolabel detection or LC-MS-MS analysis. Assays are performed in the presence and absence of an efflux transporter inhibitor or competitor. Efflux transporter inhibitors or competitors increase apical to basolateral transport and decrease basolateral to apical transport of compounds that are efflux transporter substrates. Apparent permeability (Papp) of test compounds is measured. […] Test compounds that generate ratios between 1.5 and 2.0 require additional testing to determine if they are efflux transporter substrates.
MDCK cells transfected with the tetracycline-inducible TREx-PgP expression vector were seeded on polycarbonate filter membranes in transwell dishes and grown for 3-5 days, yielding a polarized monolayer with tight junctions between cells. […] The left set of bars depicts apical to basolateral transport, while the right set of bars depicts basolateral to apical transport.

[3] = 2.5 nM 3H-vinblastine, in the presence of 250 μM verapamil versus absence, FIG. 6

T2 sequence (P08183 whole entry): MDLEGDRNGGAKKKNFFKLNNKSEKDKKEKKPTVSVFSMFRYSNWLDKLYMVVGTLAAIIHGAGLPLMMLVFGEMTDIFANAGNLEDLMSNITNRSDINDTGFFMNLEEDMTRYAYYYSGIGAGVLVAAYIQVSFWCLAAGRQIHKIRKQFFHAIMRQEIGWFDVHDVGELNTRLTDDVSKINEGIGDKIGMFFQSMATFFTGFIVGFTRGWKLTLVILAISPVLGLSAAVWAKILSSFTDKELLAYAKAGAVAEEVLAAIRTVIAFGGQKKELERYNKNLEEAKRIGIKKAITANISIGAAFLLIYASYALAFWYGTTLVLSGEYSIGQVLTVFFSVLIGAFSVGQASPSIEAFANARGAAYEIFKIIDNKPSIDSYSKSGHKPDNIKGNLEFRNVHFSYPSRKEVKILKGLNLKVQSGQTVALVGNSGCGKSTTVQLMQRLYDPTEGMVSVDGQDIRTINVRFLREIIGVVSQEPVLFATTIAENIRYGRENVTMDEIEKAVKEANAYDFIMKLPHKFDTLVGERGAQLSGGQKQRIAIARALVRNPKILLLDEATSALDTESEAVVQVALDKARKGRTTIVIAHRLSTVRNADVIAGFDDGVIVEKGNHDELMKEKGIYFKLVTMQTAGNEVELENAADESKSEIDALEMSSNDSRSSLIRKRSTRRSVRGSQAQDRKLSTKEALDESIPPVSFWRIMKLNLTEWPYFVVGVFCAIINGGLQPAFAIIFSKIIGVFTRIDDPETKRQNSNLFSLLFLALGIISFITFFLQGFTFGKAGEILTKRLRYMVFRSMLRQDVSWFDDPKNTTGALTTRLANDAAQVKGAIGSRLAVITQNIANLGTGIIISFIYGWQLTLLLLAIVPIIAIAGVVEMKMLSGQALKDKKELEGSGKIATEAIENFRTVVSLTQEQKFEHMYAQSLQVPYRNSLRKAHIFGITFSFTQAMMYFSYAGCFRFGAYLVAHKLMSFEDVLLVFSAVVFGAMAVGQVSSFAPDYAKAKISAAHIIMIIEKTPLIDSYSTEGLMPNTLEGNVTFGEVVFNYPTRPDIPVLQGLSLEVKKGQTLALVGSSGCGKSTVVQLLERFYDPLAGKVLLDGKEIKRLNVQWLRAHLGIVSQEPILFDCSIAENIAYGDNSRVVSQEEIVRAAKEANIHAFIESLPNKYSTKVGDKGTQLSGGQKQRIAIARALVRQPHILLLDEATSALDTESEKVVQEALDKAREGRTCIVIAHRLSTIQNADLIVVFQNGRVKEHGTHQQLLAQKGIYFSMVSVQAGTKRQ

apical to basolateral transport [2, 3]	basolateral to apical transport [2, 3]	efflux transporter substrate status ([2]; conclusion from transwell transport with and without verapamil)	SMILES	Reported Affinity for OAT3 [1]
			CC1(C)S[C@@H]2[C@H](NC(=O)Cc3ccccc3)C(=O)N2[C@H]1C(=O)O [Benzylpennicillin]	0.3 mM
			C[C@]12CC[C@@H]3c4ccc(OS(=O)(=O)O)cc4CC[C@H]3[C@@H]1CCC2=O [Estrone-3-sulphate]	0.04 mM
			C[C@@H]1Cc2c(Cl)cc(C(=O)N[C@@H](Cc3ccccc3)C(=O)O)c(O)c2C(=O)O1 [Ochratoxin A]	0.05 mM
			CCCN(CCC)S(=O)(=O)c1ccc(C(=O)O)cc1 [Probenecid]	0.05 mM
strongly increased	strongly decreased	substrate of PgP	CC[C@]1(O)C[C@@H]2CN(CCc3c([nH]c4ccccc34)[C@@](C(=O)OC)(c3cc4c(cc3OC)N(C)[C@H]3[C@@](O)(C(=O)OC)[C@H](OC(C)=O)[C@]5(CC)C=CCN6CC[C@]43[C@@H]65)C2)C1 [^3H-vinblastine, vinblastine]	
